One assay has as its system HCV GT1b replicon. In words: HCV replicon assay (Huh-7 cells stably transfected with HCV GT1b replicon; luciferase or NEO gene qPCR readout). The class given is cell-based. Conditions: Hepatitis C virus, HCV 1b genotype replicon, 72 hours. On the procedure: (§1) HCV Replicon System was utilized as a screening model in the present disclosure to evaluate the antivirus effects of the compounds disclosed herein against HCV. HCV Replicon assay was first described in Science, 1999, 285 (5424), 110-3. […] To determine the potential anti-HCV effects of the test compounds, luciferase assay and antibiotic Neomycin resistance gene were tested according to the method described in Science. 1999 Jul. 2; 285 (5424), 110-3 and J. Virol. 2003 March; 77 (5), 3007-19.
(§2) In a word, the compounds disclosed herein were tested by using human hepatic carcinoma cell line Huh-7 which is transfected stably with HCV GT1a, GT1b or GT2a replicon respectively, and resistant cells of Y93H, L31F, P32L or I302V and wild-type cells HCV 1b. HCV Replicon System disclosed herein contains G418 resistance gene NEO and Luciferase Reporter Gene, and the level of HCV replication in host cells is detected and characterized by the expression level of the NEO gene or Luciferase Reporter Gene, so the effects of the compounds herein inhibit HCV replication can be evaluated in this system. In this article, a real-time quantitative polymerase chain reaction (qPCR) method was used to detect NEO gene expression level, and chemiluminescence method was used to test Luciferase Reporter Gene expression level.
(§3) 1. Test Method for Measuring EC50 of the Compounds Based on Luciferase Assay.
(§4) The Huh-7 cells transfected with HCV replicons system were seeded into 96-well plates (8,000 cells in 125 μL/well) respectively; each test compound was diluted to desired concentration using 5-fold serial dilutions protocol, 10 doses in duplicate, and added to wells with POD™ 810 Plate Assembler. The plates were incubated in a CO2 incubator for 72 hours; after that, 40 μL of Luciferase assay substrate (Promega Bright-Glo) was added to each well, and detected by a chemiluminescence detection system (Topcount Microplate Scintillation and Luminescence Counter) 5 minutes later; the EC50 (half-maximal effective concentration, concentration for 50% of maximal effect) values of test compounds were analyzed by GraphPad Prism software. In this paper, experiments were repeated twice and set the wells without compounds as negative control.
(§5) 2. Test Method for Measuring EC50 of the Compounds by Detecting Antibiotic G418 Resistance Gene NEO Gene.
(§6) The Huh-7 cells transfected with HCV replicons system were seeded into 96-well plates (8,000 cells in 125 μL/well) respectively; each test compound was diluted to desired concentration using 5-fold serial dilutions protocol, 10 doses in duplicate, and added to each well with POD™ 810 Plate Assembler; the cells were incubated in a CO2 incubator for 72 hours; and detected the expression level of the NEO gene expression with real-time quantitative PCR later; the EC50 (half-maximal effective concentration, concentration for 50% of maximal effect) values of test compounds were analyzed by GraphPad Prism software, respectively. In this paper, experiments were repeated twice and set the wells without compounds as negative control.
For orientation: Replicon systems follow genome replication, usually without infectious particles.

The subject of a further assay is HCV GT1a replicon. In words: HCV replicon assay (Huh-7 cells stably transfected with HCV GT1a replicon; luciferase or NEO gene qPCR readout). Conditions: Hepatitis C virus, HCV 1a genotype replicon, 72 hours. The class given is cell-based. The protocol:
as §1, §2, §3, §4, §5, §6

Consider `COC(=O)N[C@H](C(=O)N1CCC[C@H]1c1ncc(-c2ccc(-c3ccc(-c4ccc5nc([C@@H]6CCCN6C(=O)[C@@H](NC(=O)OC)C(C)C)[nH]c5c4)c4c3C3CCC3C4)c3ccccc23)[nH]1)C(C)C` (stereo partly drawn) [Example 23], for which the EC50 – broadly, the midpoint of the concentration-response curve – in the assay with HCV GT1b replicon was 0.05 nM; in the assay with HCV GT1a replicon, 0.449 nM.
The like results for `COC(=O)N[C@H](C(=O)N1CCC[C@H]1c1cc(=O)c2cc(-c3ccc(-c4ccc(-c5cnc([C@@H]6CCCN6C(=O)[C@@H](NC(=O)OC)c6ccccc6)[nH]5)cc4)c4c3C3(C)CCC3C4)ccc2[nH]1)c1ccccc1` (stereo partly drawn) [Example 30] were, in that order, 0.092 nM and 0.211 nM.
The like results for `COC(=O)N[C@H](C(=O)N1CCC[C@H]1c1ncc(-c2ccc(-c3ccc(-c4cnc([C@@H]5CCCN5C(=O)[C@@H](NC(=O)OC)C(C)C)[nH]4)c4c3C3CC(=O)CC3C4)cc2)[nH]1)C(C)C` (stereo partly drawn) [Example 34] were, in that order, 0.022 nM and 0.075 nM.
Consider `COC(=O)N[C@H](C(=O)N1CCC[C@H]1c1ncc(C#Cc2ccc(-c3ccc4nc([C@@H]5CCCN5C(=O)[C@@H](NC(=O)OC)C(C)C)[nH]c4c3)c3c2C2CCC2C3)[nH]1)C(C)C` (stereo partly drawn) [Example 6], for which the EC50 came out at 0.106 nM with HCV GT1b replicon and 0.243 nM in the assay with HCV GT1a replicon.
The like results for `COC(=O)N[C@H](C(=O)N1CCC[C@H]1c1ncc(-c2ccc(-c3ccc(-c4ccc5nc([C@@H]6CCCN6C(=O)[C@@H](NC(=O)OC)C(C)C)[nH]c(=O)c5c4)c4c3C3CC(F)(F)C3C4)cc2)[nH]1)C(C)C` (stereo partly drawn) [Example 28] were, in that order, 0.008 nM and 0.022 nM.
Turning to `COC(=O)N[C@H](C(=O)N1[C@@H]2CC[C@@H](C2)[C@H]1c1ncc(-c2ccc(-c3ccc(-c4ccc5nc([C@@H]6[C@H]7CC[C@H](C7)N6C(=O)[C@@H](NC(=O)OC)C(C)C)[nH]c5c4)c4c3C3CCC3C4)cc2)[nH]1)C(C)C` (stereo partly drawn) [Example 19], the EC50 was 0.044 nM with HCV GT1b replicon and 0.217 nM in the assay on HCV GT1a replicon.
For `COC(=O)NC(C(=O)N1CCCC1c1ncc(-c2ccc(-c3ccc(-c4ccc5nc(C6CCCN6C(=O)C(NC(=O)OC)C(C)C)[nH]c5c4)c4c3C3CCC3C4)cc2)[nH]1)C(C)C` (stereo not drawn) [Example 38] the same measures were 0.013 nM and 0.058 nM.
For `COC(=O)N[C@H](C(=O)N1CC(C)=C[C@H]1c1ncc(-c2ccc(-c3ccc(-c4cnc([C@@H]5C=C(C)CN5C(=O)[C@@H](NC(=O)OC)C(C)C)[nH]4)c4c3C3CCC3C4)cc2)[nH]1)C(C)C` (stereo partly drawn) [Example 21] the same measures were 0.015 nM and 0.068 nM.
For `COC(=O)N[C@H](C(=O)N1CCC[C@H]1c1ncc(-c2ccc(-c3ccc(-c4ccc5nc([C@@H]6CCCN6C(=O)[C@@H](NC(=O)OC)C(C)C)[nH]c5c4)c4c3CC3CCC43)c3cnoc23)[nH]1)C(C)C` (stereo partly drawn) [Example 24] the same measures were 0.118 nM and 0.207 nM.
In the case of `COC(=O)NC(C(=O)N1CCCC1c1nc2ccc(-c3ccc(-c4ccc(-c5cnc(C6C7CCC(C7)N6C(=O)C(NC(=O)OC)C(C)C)[nH]5)cc4)c4c3C3CCC3C4)cc2[nH]1)C(C)C` (stereo not drawn) [Example 36], the EC50 in the assay with HCV GT1b replicon amounted to 0.01 nM; in the assay with HCV GT1a replicon, 0.935 nM.
For `COC(=O)N[C@H](C(=O)N1CCC[C@H]1C1=Nc2cc(-c3ccc(C#Cc4cnc([C@@H]5CCCN5C(=O)[C@@H](NC(=O)OC)C5CCCCC5)[nH]4)c4c3CC3C(=O)CC43)ccc2C(C)(C)N1)C1CCCCC1` (stereo partly drawn) [Example 29] the same measures were 0.309 nM and 7.55 nM.
The like results for `COC(=O)N[C@H](C(=O)N1CCC[C@H]1c1nc(-c2ccc(-c3ccc(-c4ccc5nc([C@@H]6CCCN6C(=O)[C@@H](NC(=O)OC)C(C)C)[nH]c5c4)c4c3C3CCC3C4)c3c2CCC3)c[nH]1)C(C)C` (stereo partly drawn) [Example 22] were, in that order, 0.082 nM and 0.233 nM.
For `COC(=O)N[C@H](C(=O)N1CC2(CC2)C[C@H]1c1ncc(-c2ccc(-c3ccc(-c4ccc5nc([C@@H]6CC7(CC7)CN6C(=O)[C@@H](NC(=O)OC)C(C)C)[nH]c5c4)c4c3C3CCC3C4)cc2)[nH]1)C(C)C` (stereo partly drawn) [Example 17], the EC50 in the assay with HCV GT1b replicon is 0.078 nM; with HCV GT1a replicon it was 0.062 nM.
For `CC(C)[C@H](NC(=O)OC(C)(C)C)C(=O)N1CCC[C@H]1c1ncc(-c2ccc(-c3ccc(-c4cnc([C@@H]5CCCN5C(=O)[C@@H](NC(=O)OC(C)(C)C)C(C)C)[nH]4)c4c3C3CCC3C4)cc2)[nH]1` (stereo partly drawn) [Example 10] the same measures were 0.927 nM and 4.33 nM.
For `COC(=O)N[C@H](C(=O)N1CC(C)(C)C[C@H]1c1ncc(-c2ccc(-c3ccc(-c4ccc5nc([C@@H]6CC(C)(C)CN6C(=O)[C@@H](NC(=O)OC)C(C)C)[nH]c5c4)c4c3C3CCC3C4)cc2)[nH]1)C(C)C` (stereo partly drawn) [Example 15], the EC50 with HCV GT1b replicon was found to be 0.105 nM; in the assay on HCV GT1a replicon it was 0.381 nM.
The like results for `COC(=O)N[C@H](C(=O)N1CCC[C@H]1c1ncc(-c2ccc(-c3ccc(-c4cnc([C@@H]5CCCN5C(=O)[C@@H](NC(=O)OC)C(C)C)[nH]4)c4c3C3CCCC3C4C)cc2)[nH]1)C(C)C` (stereo partly drawn) [Example 33] were, in that order, 0.03 nM and 0.082 nM.
Regarding `COC(=O)NC(C(=O)N1CCCC1c1ncc(-c2ccc(-c3ccc(-c4cnc(C5CCCN5C(=O)C(NC(=O)OC)C(C)C)[nH]4)c4c3C3CCC3C4)cc2)[nH]1)C(C)C` (stereo not drawn) [Example 35], the EC50 in the assay with HCV GT1b replicon came out at 0.007 nM; with HCV GT1a replicon, 0.548 nM.
For `COC(=O)N[C@H](C(=O)N1CCC[C@H]1C(=O)Nc1ccc(-c2ccc(-c3ccc4nc([C@@H]5CCCN5C(=O)[C@@H](NC(=O)OC)C(C)C)[nH]c4c3)c3c2CC2CCC32)cc1)C(C)C` (stereo partly drawn) [Example 27] the same measures were 0.672 nM and 1.64 nM.
The like results for `COC(=O)N[C@H](C(=O)N1CCC[C@H]1c1ncc(-c2ccc(-c3ccc(-c4ccc5nc([C@@H]6CCCN6C(=O)[C@@H](NC(=O)OC)C(C)C)[nH]c5c4)c4c3C3CCC3C4)nc2)[nH]1)C(C)C` (stereo partly drawn) [Example 8] were, in that order, 0.028 nM and 0.066 nM.
For `COC(=O)N[C@H](C(=O)N1CCC[C@H]1c1ncc(-c2ccc(-c3ncc(-c4ccc5nc([C@@H]6CCCN6C(=O)[C@@H](NC(=O)OC)C(C)C)[nH]c5c4)c4c3C3CCC3C4)cc2)[nH]1)C(C)C` (stereo partly drawn) [Example 25] the same measures were 0.032 nM and 0.065 nM.
For `COC(=O)N[C@@H](C)C(=O)N1CCCC1C1=Nc2cc(-c3ccc(-c4cnc([C@@H]5CCCN5C(=O)[C@H](C)NC(=O)OC)[nH]4)c4c3CC3CCC43)ccc2C2(COC2)N1` (stereo partly drawn) [Example 5], the EC50 in the assay with HCV GT1b replicon came to 0.119 nM; in the assay on HCV GT1a replicon, 1.04 nM.
For the compound `COC(=O)N[C@H](C(=O)N1C[C@@H](C)C[C@H]1c1ncc(-c2ccc(-c3ccc(-c4ccc5nc([C@@H]6C[C@H](C)CN6C(=O)[C@@H](NC(=O)OC)C(C)C)[nH]c5c4)c4c3C3CCC3C4)cc2)[nH]1)C(C)C` (stereo partly drawn) [Example 14], the results for the EC50 in the assay with HCV GT1b replicon and in the assay on HCV GT1a replicon were 0.001 nM and 0.003 nM, respectively.
For `COC(=O)N[C@H](C(=O)N1CCC[C@H]1c1ncc(-c2ccc(-c3ccc(-c4ccc5nc([C@@H]6CCCN6C(=O)[C@@H](NC(=O)OC)C(C)C)[nH]c5c4)c4c3CC3CCC43)s2)[nH]1)C(C)C` (stereo partly drawn) [Example 7] the same measures were 0.053 nM and 0.093 nM.
As for `CC(C)[C@H](NC(=O)Oc1ccccc1)C(=O)N1CC(C)(C)C[C@H]1c1ncc(-c2ccc(-c3ccc(-c4ccc5nc([C@@H]6CC(C)(C)CN6C(=O)[C@@H](NC(=O)Oc6ccccc6)C(C)C)[nH]c5c4)c4c3C3CCC3C4)cc2)[nH]1` (stereo partly drawn) [Example 16], the figures for the EC50 in the assay with HCV GT1b replicon and with HCV GT1a replicon were 0.879 nM and 2.55 nM, respectively.

(Values after US9802949B2, “Fused ring compounds as hepatitis C virus inhibitors, pharmaceutical compositions and uses thereof” (SUNSHINE LAKE PHARMA CO., LTD., priority 2012, dated 2017).)
